{"source": "patent US20160084823A1", "about": "“METHODS AND KITS FOR TESTING THE GE[…] AN AGENT” (INSERM (INSTITUT NATIONAL DE LA SANTÉ ET DE LA RECHERCHE …, priority 2013, published 2016)", "tested_on": "p53 target genes (KIAA0284; PODXL1; RRAD; FHL2; TP53I3)", "test": "p53 genotoxicity assay: RT-QMPSF of p53 target gene induction in EBV-immortalized human lymphocytes (wild type TP53 vs p.R175H)", "conditions": "0.3 μM doxorubicin; lymphocytes from a healthy control and from a Li-Fraumeni patient with p.R175H germline mutation; FIG. 2", "protocol": "In the first version of this assay EBV-immortalized human lymphocytes derived from healthy blood donor with wild type TP53 or Li-Fraumeni patients harboring germline heterozygous TP53 mutations are cultured in 24 well plates, during 5 h, with or without the chemicals to test. RNA is then extracted using Nucleospin RNAII kit (Macherey Nagel). […] RT-QMPSF analysis using 5 TP53 target genes and 2 control amplicons are performed on cells treated or not with the chemicals and profiles were compared after normalization on controls amplicons.\nIn each case, the TP53 genotype of EBV-immortalized lymphocytes was checked by sequencing and QMPSF analyses. EBV-transformed lymphocytes were maintained in RPMI 1640 medium (GIBCO, Invitrogen), supplemented with 10% heat-inactivated fetal bovine serum (Invitrogen) at 37° C. with 5% CO2. […]\nAfter treatment cells were centrifuged, lysed using RA1 reagent from Nucleospin RNAII (Macherey Nagel), RNA was extracted following the manufacturer's instructions and quantified using a ND-1000 UV-Vis Spectrophotometer (NanoDrop technologies). The integrity of the RNA was assessed with the Agilent 2100 Bioanalyzer (Agilent), according to the manufacturer's instructions. […]"}
{"smiles": "COc1cccc2c1C(=O)c1c(O)c3c(c(O)c1C2=O)C[C@@](O)(C(=O)CO)C[C@@H]3O[C@H]1C[C@H](N)[C@H](O)[C@H](C)O1", "note": "[doxorubicin]", "values": [{"measurement": "expression induction of p53 target genes (RT-QMPSF)", "result": "showed clearly expression induction of 5 p53 target genes (KIAA0284; PODXL1; RRAD; FHL2; TP53I3) specifically in control lymphocytes"}]}
